Reference: ChEMBL document CHEMBL1136650, “Glycine alpha-ketoamides as HCV NS3 protease inhibitors” (Bioorg Med Chem Lett, 2003)
Numbered stars: 1 amine (or outer) side, 2 acyl side, 3 side chain; on linkers, the order of the positions; unused ones are H or OH. Square brackets hold non-standard residues; d marks the D form. Peptide text beside a SMILES is read from it. * marks the point of attachment. Abu(ψCOCO) = CC[C@H](N[*:1])C(=O)C(=O)[*:2]; X1 = O=C(C(=O)[*:2])[C@H](CC(F)F)N[*:1]; Pyrazinecarbonyl = O=C(c1cnccn1)*; X2 = CC(C)(N[*:1])C(=O)C(=O)[*:2]; X3 = O=C(C(=O)[*:2])C1(N[*:1])CC1; Cha = N[C@@H](CC1CCCCC1)C(=O)O; Aib = CC(C)(N)C(=O)O; NHAllyl = C=CCN*; Sar = CNCC(=O)O

Target: Genome polyprotein (Hepatitis C virus genotype 1a (isolate 1) (HCV), UniProt P26664)
Sequence (P26664 1027-1657 limits assumed): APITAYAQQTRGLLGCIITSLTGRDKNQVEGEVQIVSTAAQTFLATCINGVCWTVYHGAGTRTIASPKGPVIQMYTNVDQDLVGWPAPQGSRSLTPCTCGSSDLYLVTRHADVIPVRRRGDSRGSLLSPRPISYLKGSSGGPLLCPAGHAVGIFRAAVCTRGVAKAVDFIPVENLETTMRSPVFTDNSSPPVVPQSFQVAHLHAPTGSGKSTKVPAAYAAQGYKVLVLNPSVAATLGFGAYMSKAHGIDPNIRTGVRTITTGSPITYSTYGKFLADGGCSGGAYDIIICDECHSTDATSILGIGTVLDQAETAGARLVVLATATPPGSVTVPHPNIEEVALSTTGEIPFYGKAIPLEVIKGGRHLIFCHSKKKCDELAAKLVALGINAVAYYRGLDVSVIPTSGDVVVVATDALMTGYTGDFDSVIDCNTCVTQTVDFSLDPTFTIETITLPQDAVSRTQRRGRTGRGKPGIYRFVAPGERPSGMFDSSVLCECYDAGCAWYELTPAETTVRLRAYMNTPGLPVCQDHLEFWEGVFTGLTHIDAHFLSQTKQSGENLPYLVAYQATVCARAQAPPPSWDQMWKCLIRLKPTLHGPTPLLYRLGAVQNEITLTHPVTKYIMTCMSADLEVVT
Experiment: Inhibitory concentration against HCV NS3 protease was determined

| SMILES | IC50 [µM] |
| --- | --- |
| CC[C@H](NC(=O)[C@H](CC1CCCCC1)NC(=O)[C@@H](NC(=O)[C@H](CC(C)C)NC(=O)c1cnccn1)[C@@H](C)CC)C(=O)C(=O)N1CCOCC1 | > 60 |
| CCNC(=O)C(=O)[C@H](CC)NC(=O)[C@H](CC1CCCCC1)NC(=O)[C@@H](NC(=O)[C@H](CC(C)C)NC(=O)c1cnccn1)[C@@H](C)CC | 1.8 |
| CC[C@H](NC(=O)[C@H](CC1CCCCC1)NC(=O)[C@@H](NC(=O)[C@H](CC(C)C)NC(=O)c1cnccn1)[C@@H](C)CC)C(=O)C(=O)NCc1ccccc1 | 11 |
| CC[C@H](NC(=O)[C@H](CC1CCCCC1)NC(=O)[C@@H](NC(=O)[C@H](CC(C)C)NC(=O)c1cnccn1)[C@@H](C)CC)C(=O)C(=O)NC1CC1 | 2.2 |
| CC[C@H](NC(=O)[C@H](CC1CCCCC1)NC(=O)[C@@H](NC(=O)[C@H](CC(C)C)NC(=O)c1cnccn1)[C@@H](C)CC)C(=O)C(=O)N[C@H](C)C(=O)O | > 60 |
| CC[C@H](NC(=O)[C@H](CC1CCCCC1)NC(=O)[C@@H](NC(=O)[C@H](CC(C)C)NC(=O)c1cnccn1)[C@@H](C)CC)C(=O)C(=O)NCCC(=O)O | 12 |
| C=CCNC(=O)C(=O)[C@H](CC)NC(=O)[C@H](CC1CCCCC1)NC(=O)[C@@H](NC(=O)[C@H](CC(C)C)NC(=O)c1cnccn1)[C@@H](C)CC | 2.7 |
| CC[C@H](NC(=O)[C@H](CC1CCCCC1)NC(=O)[C@@H](NC(=O)[C@H](CC(C)C)NC(=O)c1cnccn1)[C@@H](C)CC)C(=O)C(=O)N1CCCC1 | 42 |
| CC[C@H](NC(=O)[C@H](CC1CCCCC1)NC(=O)[C@@H](NC(=O)[C@H](CC(C)C)NC(=O)c1cnccn1)[C@@H](C)CC)C(=O)C(=O)N[C@@H](C)C(=O)O | 1.3 |
| C#CCNC(=O)C(=O)[C@H](CC)NC(=O)[C@H](CC1CCCCC1)NC(=O)[C@@H](NC(=O)[C@H](CC(C)C)NC(=O)c1cnccn1)[C@@H](C)CC | 1.6 |
| C=CCNC(=O)C(=O)[C@H](CC)NC(=O)[C@@H]1CCCN1C(=O)[C@@H](NC(=O)[C@@H](NC(=O)[C@H](CCC(=O)O)NC(=O)[C@@H](N)CC(=O)O)C(C)C)C(C)C (H-DEVVP[Abu(ψCOCO)]-NHAllyl) | 0.42 |
| CC[C@H](NC(=O)[C@H](CC1CCCCC1)NC(=O)[C@@H](NC(=O)[C@H](CC(C)C)NC(=O)c1cnccn1)[C@@H](C)CC)C(=O)C(=O)N[C@@H](CC(=O)O)C(=O)O (Pyrazinecarbonyl-LI[Cha][Abu(ψCOCO)]D-OH) | 5.3 |
| CC[C@H](NC(=O)[C@H](CC1CCCCC1)NC(=O)[C@@H](NC(=O)[C@H](CC(C)C)NC(=O)c1cnccn1)[C@@H](C)CC)C(=O)C(=O)NCC(N)=O (Pyrazinecarbonyl-LI[Cha][Abu(ψCOCO)]G-NH2) | 4.3 |
| CC[C@H](NC(=O)[C@H](CC1CCCCC1)NC(=O)[C@@H](NC(=O)[C@H](CC(C)C)NC(=O)c1cnccn1)[C@@H](C)CC)C(=O)C(=O)NCC(=O)O (Pyrazinecarbonyl-LI[Cha][Abu(ψCOCO)]G-OH) | 0.23 |
| CC[C@H](NC(=O)[C@H](CC1CCCCC1)NC(=O)[C@@H](NC(=O)[C@H](CC(C)C)NC(=O)c1cnccn1)[C@@H](C)CC)C(=O)C(=O)NCC(=O)OC (Pyrazinecarbonyl-LI[Cha][Abu(ψCOCO)]G-OMe) | 5.8 |
| CC[C@H](NC(=O)[C@H](CC1CCCCC1)NC(=O)[C@@H](NC(=O)[C@H](CC(C)C)NC(=O)c1cnccn1)[C@@H](C)CC)C(=O)C(=O)N[C@@H](CCCCN)C(=O)O (Pyrazinecarbonyl-LI[Cha][Abu(ψCOCO)]K-OH) | 7.7 |
| CC[C@H](NC(=O)[C@H](CC1CCCCC1)NC(=O)[C@@H](NC(=O)[C@H](CC(C)C)NC(=O)c1cnccn1)[C@@H](C)CC)C(=O)C(=O)N[C@H](C(=O)O)C(C)C (Pyrazinecarbonyl-LI[Cha][Abu(ψCOCO)]V-OH) | 3.6 |
| CC[C@H](NC(=O)[C@H](CC1CCCCC1)NC(=O)[C@@H](NC(=O)[C@H](CC(C)C)NC(=O)c1cnccn1)[C@@H](C)CC)C(=O)C(=O)NC(C)(C)C(=O)O (Pyrazinecarbonyl-LI[Cha][Abu(ψCOCO)][Aib]-OH) | > 60 |
| CC[C@H](NC(=O)[C@H](CC1CCCCC1)NC(=O)[C@@H](NC(=O)[C@H](CC(C)C)NC(=O)c1cnccn1)[C@@H](C)CC)C(=O)C(=O)N(C)CC(=O)O (Pyrazinecarbonyl-LI[Cha][Abu(ψCOCO)][Sar]-OH) | > 60 |
| CC[C@H](C)[C@H](NC(=O)[C@H](CC(C)C)NC(=O)c1cnccn1)C(=O)N[C@@H](CC1CCCCC1)C(=O)N[C@@H](CC(F)F)C(=O)C(=O)NCC(=O)O (Pyrazinecarbonyl-LI[Cha][X1]G-OH) | 0.06 |
| CC[C@H](C)[C@H](NC(=O)[C@H](CC(C)C)NC(=O)c1cnccn1)C(=O)N[C@@H](CC1CCCCC1)C(=O)NC(C)(C)C(=O)C(=O)NCC(=O)O (Pyrazinecarbonyl-LI[Cha][X2]G-OH) | > 60 |
| CC[C@H](C)[C@H](NC(=O)[C@H](CC(C)C)NC(=O)c1cnccn1)C(=O)N[C@@H](CC1CCCCC1)C(=O)NC1(C(=O)C(=O)NCC(=O)O)CC1 (Pyrazinecarbonyl-LI[Cha][X3]G-OH) | > 60 |
